Patent publication US7928134B2, “5-aryl-4,5-dihydro-(1H)-pyrazolines as cannabinoid CB1 receptor agonists” (Solvay Pharmaceuticals B.V., priority 2007, dated 2011)

Columns and labels:
[1] = biological target: T1, human cannabinoid CB1 receptor (Homo sapiens, UniProt P21554); experiment: In vitro affinity for cannabinoid-CB1 receptors ([3H]CP-55,940 radioligand binding); details: membranes of CHO cells stably transfected with human CB1, read-out: receptor binding Human CB1 affinity pKi (converted)
T1 construct: expressed in transfected cells; host or cells: Chinese hamster ovary (CHO) cells, membrane preparations
T1 sequence (P21554 whole entry): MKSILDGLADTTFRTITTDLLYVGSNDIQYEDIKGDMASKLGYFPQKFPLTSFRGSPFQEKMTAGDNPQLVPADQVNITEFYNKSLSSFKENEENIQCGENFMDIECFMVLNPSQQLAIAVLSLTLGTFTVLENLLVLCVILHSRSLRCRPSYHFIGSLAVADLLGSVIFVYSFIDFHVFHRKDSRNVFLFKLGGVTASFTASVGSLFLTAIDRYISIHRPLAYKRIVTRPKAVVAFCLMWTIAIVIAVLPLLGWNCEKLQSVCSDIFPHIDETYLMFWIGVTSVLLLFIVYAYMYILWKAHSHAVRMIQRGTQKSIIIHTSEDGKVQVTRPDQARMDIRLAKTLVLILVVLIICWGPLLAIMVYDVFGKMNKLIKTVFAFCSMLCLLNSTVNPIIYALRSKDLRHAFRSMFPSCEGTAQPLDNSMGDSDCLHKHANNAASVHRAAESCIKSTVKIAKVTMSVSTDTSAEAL
Description: In Vitro Affinity for Cannabinoid-CB1 Receptors
(§1) The affinity of the compounds of the invention for cannabinoid CB1 receptors can be determined using membrane preparations of Chinese hamster ovary (CHO) cells in which the human cannabinoid CB1 receptor is stably transfected in conjunction with [^3H]CP-55,940 as radioligand. After incubation of a freshly prepared cell membrane preparation with the [^3H]-ligand, with or without addition of one or more compounds of the invention, separation of bound and free ligand is performed by filtration over glassfiber filters. Radioactivity on the filter is measured by liquid scintillation counting.

[2] = biological target: T2, human cannabinoid CB2 receptor (Homo sapiens, UniProt P34972); experiment: In vitro affinity for cannabinoid-CB2 receptors ([3H]CP-55,940 radioligand binding); details: membranes of CHO cells stably transfected with human CB2, read-out: receptor binding Human CB2 affinity pKi (converted)
T2 construct: expressed in transfected cells; host or cells: CHO cells, membrane preparations
T2 sequence (P34972 whole entry): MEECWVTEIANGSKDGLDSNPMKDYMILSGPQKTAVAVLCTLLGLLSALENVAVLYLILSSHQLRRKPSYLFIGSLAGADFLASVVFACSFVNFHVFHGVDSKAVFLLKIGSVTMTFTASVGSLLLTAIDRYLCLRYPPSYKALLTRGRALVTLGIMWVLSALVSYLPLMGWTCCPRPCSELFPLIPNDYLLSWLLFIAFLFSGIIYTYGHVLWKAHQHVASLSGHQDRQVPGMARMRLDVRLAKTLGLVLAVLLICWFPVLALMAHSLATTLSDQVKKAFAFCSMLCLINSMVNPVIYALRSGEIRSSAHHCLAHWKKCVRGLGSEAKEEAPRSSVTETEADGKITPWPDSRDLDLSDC
Description: In Vitro Affinity for Cannabinoid-CB2 Receptors
as §1, with “CB2” for “CB1”, “CHO” for “Chinese hamster ovary (CHO)”

human CB1 receptor = biological target: T3, human CB1 receptor (Homo sapiens, UniProt P21554); experiment: In vitro cannabinoid-CB1 receptor (ant)agonism ([3H]-arachidonic acid release in CHO cells); type: cell-based; details: human CB1 receptor cloned in CHO cells; for EC50: read-out: Functional CB1 assays Human CB1 agonism pEC50 (converted)
T3 construct: expressed in transfected cells; host or cells: CHO cells
T3 sequence (P21554 whole entry): as the sequence (P21554 whole entry) above
Description: In Vitro Cannabinoid-CB1 Receptor (Ant)Agonism
In vitro CB1 receptor antagonism/agonism can be assessed with the human CB1 receptor cloned in CHO cells. CHO cells are grown in a Dulbecco's Modified Eagle's medium (DMEM) culture medium, supplemented with 10% heat-inactivated fetal calf serum. Medium is aspirated and replaced by DMEM, without fetal calf serum, but containing [^3H]-arachidonic acid and incubated overnight in a cell culture stove (5% CO2/95% air; 37° C.; water-saturated atmosphere). During this period [^3H]-arachidonic acid is incorporated in membrane phospholipids. On the test day, medium is aspirated and cells are washed three times using 0.5 ml DMEM, containing 0.2% bovine serum albumin (BSA). CB1 agonist stimulation leads to activation of PLA2 followed by release of [^3H]-arachidonic acid into the medium. This CB1 agonist-induced release is concentration-dependently antagonized by CB1 receptor antagonists, such as for example rimonabant.

Question: Which Ki [1] does the source give for CCCCCN1N=C(C(=O)NC(C)(C)c2ccc(F)cc2)CC1c1ccccc1 (stereo not drawn) [Compound 105, N-(1-(4-fluorophenyl)-1-methyl-ethyl)-1-(n-pentyl)-5-phenyl-4,5-dihydro-(1H)-pyrazole-3-carboxamide] here?
Answer: 15.8 nM

Question: And the Ki [2]?
Answer: 126 nM

Question: And the EC50 (human CB1 receptor)?
Answer: 1.58 nM

Question: What does the source list for CCCCCN1N=C(C(=O)N[C@H]2C[C@H]3CC[C@]2(C)C3(C)C)CC1c1ccccc1 (stereo partly drawn) [Compound 104, N-[endo-(1R,2S,4R)-1,7,7-trimethylbicyclo[2.2.1]hept-2-yl]-1-(n-pentyl)-5-phenyl-4,5-dihydro-(1H)-pyrazole-3-carboxamide]?
Answer: Ki [1]: 6.31 nM; Ki [2]: 25.1 nM; EC50 (human CB1 receptor): 3.16 nM

Question: For CCCCCN1N=C(C(=O)NC2C3CC4CC(C3)CC2C4)CC1c1ccccc1 (stereo not drawn) [Compound 1, N-(Adamant-2-yl)-1-(n-pentyl)-5-phenyl-4,5-dihydro-(1H)-pyrazole-3-carboxamide], which Ki [1] is on record?
Answer: 7.94 nM

Question: And the Ki [2]?
Answer: 5.01 nM

Question: And the “Functional CB1 assays Human CB1 agonism pEC50” value (human CB1 receptor)?
Answer: 8.1

Question: For CCCCCN1N=C(C(=O)NCc2cccnc2)CC1c1ccccc1 (stereo not drawn) [Compound 7, N-(Pyridin-3-ylmethyl)-1-(n-pentyl)-5-phenyl-4,5-dihydro-(1H)-pyrazole-3-carboxamide], which Ki [1] is on record?
Answer: 126 nM

Question: And the Ki [2]?
Answer: 501 nM

Question: What about the EC50 (human CB1 receptor) of the same compound?
Answer: 631 nM

Question: How did the Ki [1] turn out when CCCCCN1N=C(C(=O)NC(C)c2ccccc2)CC1c1ccccc1 (mixture of isomers) [Compound 14, N-(1-Phenyl-ethyl)-1-(n-pentyl)-5-phenyl-4,5-dihydro-(1H)-pyrazole-3-carboxamide] was run?
Answer: 31.6 nM

Question: What about the Ki [2] of the same compound?
Answer: 251 nM

Question: What about the EC50 (human CB1 receptor) of the same compound?
Answer: 501 nM

Question: CC(C)CN1N=C(C(=O)N[C@H]2C[C@H]3CC[C@]2(C)C3(C)C)CC1c1ccccc1 (stereo partly drawn) [Compound 110, N-[endo-(1R,2S,4R)-1,7,7-trimethylbicyclo[2.2.1]hept-2-yl]-1-isobutyl-5-phenyl-4,5-dihydro-(1H)-pyrazole-3-carboxamide] was tested. Which Ki [1] did it give?
Answer: 50.1 nM

Question: And the Ki [2]?
Answer: 50.1 nM

Question: And the EC50 (human CB1 receptor)?
Answer: 316 nM

Question: How did the Ki [1] turn out when CC(C)(NC(=O)C1=NN(CC2CCCCC2)C(c2ccccc2)C1)c1ccc(F)cc1 (stereo not drawn) [Compound 108, N-[1-(4-fluorophenyl)-1-methyl-ethyl]-1-cyclohexylmethyl-5-phenyl-4,5-dihydro-(1H)-pyrazole-3-carboxamide] was run?
Answer: 25.1 nM

Question: What about the Ki [2] of the same compound?
Answer: 31.6 nM

Question: What about the EC50 (human CB1 receptor) of the same compound?
Answer: 15.8 nM

Question: Which Ki [1] does the source give for CCCCCN1N=C(C(=O)NC2CC3CCC2C3)CC1c1ccccc1 (stereo not drawn) [Compound 12, N-(Exo-bicyclo[2.2.1]hept-2-yl)-1-(n-pentyl)-5-phenyl-4,5-dihydro-(1H)-pyrazole-3-carboxamide] here?
Answer: 79.4 nM

Question: What about the Ki [2] of the same compound?
Answer: 39.8 nM

Question: And the EC50 (human CB1 receptor)?
Answer: 39.8 nM

Question: Which Ki [1] does the source give for CCCCCN1N=C(C(=O)Nc2cccc3ccccc23)CC1c1ccccc1 (stereo not drawn) [Compound 4, N-(Napht-1-yl)-1-(n-pentyl)-5-phenyl-4,5-dihydro-(1H)-pyrazole-3-carboxamide] here?
Answer: 31.6 nM

Question: And the Ki [2]?
Answer: 79.4 nM

Question: And the EC50 (human CB1 receptor)?
Answer: 39.8 nM

Question: What does the source list for CCCCCN1N=C(C(=O)NC(C)(C)c2ccccc2)CC1c1ccccc1 (stereo not drawn) [Compound 28, N-(1-Phenyl-1-methyl-ethyl)-1-(n-pentyl)-5-phenyl-4,5-dihydro-(1H)-pyrazole-3-carboxamide]?
Answer: Ki [1]: 6.31 nM; Ki [2]: 100 nM; EC50 (human CB1 receptor): 7.94 nM

Question: Which results are given for CCCCN1N=C(C(=O)N[C@H]2C[C@H]3CC[C@]2(C)C3(C)C)CC1c1ccccc1 (stereo partly drawn) [Compound 103, N-[endo-(1R,2S,4R)-1,7,7-trimethylbicyclo[2.2.1]hept-2-yl]-1-(n-butyl)-5-phenyl-4,5-dihydro-(1H)-pyrazole-3-carboxamide]?
Answer: Ki [1]: 79.4 nM; Ki [2]: 25.1 nM; EC50 (human CB1 receptor): 31.6 nM

Question: Which results are given for CCCCN1N=C(C(=O)NC(C)(C)c2ccccc2)CC1c1ccccc1 (stereo not drawn) [Compound 102, N-(1-phenyl-1-methyl-ethyl)-1-(n-butyl)-5-phenyl-4,5-dihydro-(1H)-pyrazole-3-carboxamide]?
Answer: Ki [1]: 39.8 nM; Ki [2]: 39.8 nM; EC50 (human CB1 receptor): 100 nM

Question: Which Ki [1] does the source give for CCCCCN1N=C(C(=O)N[C@H]2C[C@H]3CC[C@]2(C)C3(C)C)CC1c1ccccc1F (stereo partly drawn) [Compound 101, N-[endo-(1R,2S,4R)-1,7,7-trimethylbicyclo[2.2.1]hept-2-yl]-1-(n-pentyl)-5-(2-fluorophenyl)-4,5-dihydro-(1H)-pyrazole-3-carboxamide] here?
Answer: 6.31 nM

Question: What about the Ki [2] of the same compound?
Answer: 7.94 nM

Question: And the EC50 (human CB1 receptor)?
Answer: 6.31 nM

Question: With CCCCCN1N=C(C(=O)NC23CC4CC(CC(C4)C2)C3)CC1c1ccccc1 (stereo not drawn) [Compound 27, N-(Adamantyl)-1-(n-pentyl)-5-phenyl-4,5-dihydro-(1H)-pyrazole-3-carboxamide] as the compound, how does the Ki [1] read?
Answer: 15.8 nM

Question: What about the Ki [2] of the same compound?
Answer: 7.94 nM

Question: And the EC50 (human CB1 receptor)?
Answer: 12.6 nM

Question: Which results are given for CCCCCN1N=C(C(=O)NCc2cccc(C(F)(F)F)c2)CC1c1ccccc1 (racemic) [Compound 22]?
Answer: Ki [1]: 63.1 nM; Ki [2]: 316 nM; EC50 (human CB1 receptor): 79.4 nM

Question: What does the source list for CCCCCN1N=C(C(=O)NC(C)(C)c2ccccc2)CC1c1ccccn1 (stereo not drawn) [Compound 32, N-(1-Phenyl-1-methyl-ethyl)-1-(n-pentyl)-5-(pyrid-2-yl)-4,5-dihydro-(1H)-pyrazole-3-carboxamide]?
Answer: Ki [1]: 7.94 nM; Ki [2]: 10 nM; EC50 (human CB1 receptor): 39.8 nM

Question: How did the Ki [1] turn out when CCCCN1N=C(C(=O)NC(C)(C)c2ccccc2)[C@@H](C)[C@@H]1c1ccccc1 (relative stereo) [Compound 37, N-(1-Phenyl-1-methyl-ethyl)-1-(n-butyl)-trans-4-methyl-5-phenyl-4,5-dihydro-(1H)-pyrazole-3-carboxamide] was run?
Answer: 15.8 nM

Question: And the Ki [2]?
Answer: 100 nM

Question: And the EC50 (human CB1 receptor)?
Answer: 7.94 nM
